Source: PubChem BioAssay (NCI)
Several values for one entry are separate records, joined by “and”; a condition that tells them apart may be missing. Equal values may be shown once.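 Protocol summary: plate cells (96-well), add compound at 5 concentrations, incubate 48 h, interpolate endpoints linearly. GI50 = concentration required for 50% inhibition of growth. TGI: concentration producing complete growth inhibition.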

Legend:
Test in all cases: inhibition of tumour cell growth, NCI panel, 48 h
RPMI-8226 leukemia = system: RPMI-8226 leukemia
SK-MEL-28 melanoma = system: SK-MEL-28 melanoma
CAKI-1 renal = system: CAKI-1 renal
NCI-H23 lung = system: NCI-H23 lung
MDA-MB-231 breast = system: MDA-MB-231 breast
UACC-62 melanoma = system: UACC-62 melanoma
NCI-H522 lung = system: NCI-H522 lung
SN12C renal = system: SN12C renal
UO-31 renal = system: UO-31 renal
HS 578T breast = system: HS 578T breast
MCF7 breast = system: MCF7 breast
SNB-75 CNS = system: SNB-75 CNS
PC-3 prostate = system: PC-3 prostate
HT29 colon = system: HT29 colon
HCC-2998 colon = system: HCC-2998 colon
LOX IMVI melanoma = system: LOX IMVI melanoma
T-47D breast = system: T-47D breast
SNB-19 CNS = system: SNB-19 CNS
HCT-116 colon = system: HCT-116 colon
HOP-92 NSCLC = system: HOP-92 NSCLC
A549 NSCLC = system: A549 NSCLC
ACHN renal = system: ACHN renal
OVCAR-4 ovarian = system: OVCAR-4 ovarian
EKVX NSCLC = system: EKVX NSCLC
K-562 leukemia = system: K-562 leukemia
OVCAR-8 ovarian = system: OVCAR-8 ovarian
BT-549 breast = system: BT-549 breast
TK-10 renal = system: TK-10 renal
NCI-H226 lung = system: NCI-H226 lung
KM12 colon = system: KM12 colon
CCRF-CEM leukemia = system: CCRF-CEM leukemia
M14 melanoma = system: M14 melanoma
IGROV1 ovarian = system: IGROV1 ovarian
SK-OV-3 ovarian = system: SK-OV-3 ovarian
SW-620 colon = system: SW-620 colon
MOLT-4 leukemia = system: MOLT-4 leukemia
SF-539 CNS = system: SF-539 CNS
HOP-62 NSCLC = system: HOP-62 NSCLC
NCI/ADR-RES ovarian = system: NCI/ADR-RES ovarian
A498 renal = system: A498 renal
OVCAR-3 ovarian = system: OVCAR-3 ovarian
DU-145 prostate = system: DU-145 prostate
OVCAR-5 ovarian = system: OVCAR-5 ovarian
COLO 205 colon = system: COLO 205 colon
SF-295 CNS = system: SF-295 CNS
786-0 renal = system: 786-0 renal
NCI-H460 lung = system: NCI-H460 lung
RXF 393 renal = system: RXF 393 renal
SF-268 CNS = system: SF-268 CNS
U251 CNS = system: U251 CNS
UACC-257 melanoma = system: UACC-257 melanoma
HL-60(TB) leukemia = system: HL-60(TB) leukemia
SK-MEL-5 melanoma = system: SK-MEL-5 melanoma
SK-MEL-2 melanoma = system: SK-MEL-2 melanoma
MALME-3M melanoma = system: MALME-3M melanoma
MDA-MB-435 = system: MDA-MB-435
HCT-15 colon = system: HCT-15 colon

SMILES: C1=C/COCc2cc(ccc2OCCN2CCCC2)Nc2nccc(n2)-c2cccc(c2)COC/1
- GI50 (RPMI-8226 leukemia): 1370 nM and 1910 nM
- TGI (RPMI-8226 leukemia): 4640 nM and 5840 nM
- GI50 (SK-MEL-28 melanoma): 1290 nM and 1150 nM
- TGI (SK-MEL-28 melanoma): 2860 nM and 2430 nM
- GI50 (CAKI-1 renal): 443 nM and 463 nM
- TGI (CAKI-1 renal): 2040 nM and 2250 nM
- GI50 (NCI-H23 lung): 628 nM and 1140 nM
- TGI (NCI-H23 lung): 2360 nM and 3210 nM
- GI50 (MDA-MB-231 breast): 1170 nM and 798 nM
- TGI (MDA-MB-231 breast): 3130 nM and 2920 nM
- GI50 (UACC-62 melanoma): 641 nM and 1300 nM
- TGI (UACC-62 melanoma): 2120 nM and 2730 nM
- GI50 (NCI-H522 lung): 1750 nM and 1440 nM
- TGI (NCI-H522 lung): 3750 nM and 3400 nM
- GI50 (SN12C renal): 587 nM and 586 nM
- TGI (SN12C renal): 2620 nM and 2940 nM
- GI50 (UO-31 renal): 366 nM and 758 nM
- TGI (UO-31 renal): 2020 nM and 3200 nM
- GI50 (HS 578T breast): 1290 nM and 1680 nM
- TGI (HS 578T breast): 4470 nM and 5560 nM
- GI50 (MCF7 breast): 353 nM
- TGI (MCF7 breast): 1540 nM
- GI50 (SNB-75 CNS): 1080 nM and 1140 nM
- TGI (SNB-75 CNS): 2440 nM and 2600 nM
- GI50 (PC-3 prostate): 620 nM and 1010 nM
- TGI (PC-3 prostate): 3170 nM and 3930 nM
- GI50 (HT29 colon): 481 nM and 542 nM
- TGI (HT29 colon): 2450 nM and 2640 nM
- GI50 (HCC-2998 colon): 1180 nM and 1280 nM
- TGI (HCC-2998 colon): 3190 nM and 3100 nM
- GI50 (LOX IMVI melanoma): 370 nM and 580 nM
- TGI (LOX IMVI melanoma): 1580 nM and 2170 nM
- GI50 (T-47D breast): 509 nM and 949 nM
- TGI (T-47D breast): 3030 nM and 3780 nM
- GI50 (SNB-19 CNS): 1340 nM and 1850 nM
- TGI (SNB-19 CNS): 5600 nM and 8470 nM
- GI50 (HCT-116 colon): 457 nM and 498 nM
- TGI (HCT-116 colon): 2390 nM and 1780 nM
- GI50 (HOP-92 NSCLC): 1200 nM and 624 nM
- TGI (HOP-92 NSCLC): 6380 nM and 3150 nM
- GI50 (A549 NSCLC): 1060 nM and 1140 nM
- TGI (A549 NSCLC): 3000 nM and 3380 nM
- GI50 (ACHN renal): 394 nM and 486 nM
- TGI (ACHN renal): 2760 nM and 3680 nM
- GI50 (OVCAR-4 ovarian): 1550 nM and 1370 nM
- TGI (OVCAR-4 ovarian): 4510 nM and 3210 nM
- GI50 (EKVX NSCLC): 1720 nM and 1760 nM
- TGI (EKVX NSCLC): 8830 nM and 5740 nM
- GI50 (K-562 leukemia): 639 nM and 1180 nM
- TGI (K-562 leukemia): 4050 nM and 4510 nM
- GI50 (OVCAR-8 ovarian): 1280 nM and 1840 nM
- TGI (OVCAR-8 ovarian): 4310 nM and 8030 nM
- GI50 (BT-549 breast): 2150 nM and 2300 nM
- TGI (BT-549 breast): 5020 nM and 4870 nM
- GI50 (TK-10 renal): 1580 nM and 1090 nM
- TGI (TK-10 renal): 3670 nM and 3840 nM
- GI50 (NCI-H226 lung): 376 nM and 1280 nM
- TGI (NCI-H226 lung): 1820 nM and 2730 nM
- GI50 (KM12 colon): 149 nM and 224 nM
- TGI (KM12 colon): 1400 nM and 1570 nM
- GI50 (CCRF-CEM leukemia): 652 nM and 1080 nM
- TGI (CCRF-CEM leukemia): 11500 nM and 6620 nM
- GI50 (M14 melanoma): 669 nM and 997 nM
- TGI (M14 melanoma): 2460 nM and 2430 nM
- GI50 (IGROV1 ovarian): 498 nM and 552 nM
- TGI (IGROV1 ovarian): 3020 nM and 3550 nM
- GI50 (SK-OV-3 ovarian): 1450 nM and 1190 nM
- TGI (SK-OV-3 ovarian): 3280 nM and 2580 nM
- GI50 (SW-620 colon): 489 nM and 927 nM
- TGI (SW-620 colon): 2590 nM and 3690 nM
- GI50 (MOLT-4 leukemia): 369 nM and 689 nM
- TGI (MOLT-4 leukemia): 2540 nM and 4090 nM
- GI50 (SF-539 CNS): 1470 nM and 1800 nM
- TGI (SF-539 CNS): 3000 nM and 3320 nM
- GI50 (HOP-62 NSCLC): 1110 nM and 1360 nM
- TGI (HOP-62 NSCLC): 4390 nM and 3230 nM
- GI50 (NCI/ADR-RES ovarian): 1090 nM and 1760 nM
- TGI (NCI/ADR-RES ovarian): 4330 nM and 6240 nM
- GI50 (A498 renal): 1250 nM and 1310 nM
- TGI (A498 renal): 2700 nM and 3980 nM
- GI50 (OVCAR-3 ovarian): 849 nM and 1310 nM
- TGI (OVCAR-3 ovarian): 2850 nM and 2890 nM
- GI50 (DU-145 prostate): 433 nM and 749 nM
- TGI (DU-145 prostate): 11200 nM and 3660 nM
- GI50 (OVCAR-5 ovarian): 356 nM and 717 nM
- TGI (OVCAR-5 ovarian): 2360 nM and 2780 nM
- GI50 (COLO 205 colon): 443 nM and 643 nM
- TGI (COLO 205 colon): 1840 nM and 1850 nM
- GI50 (SF-295 CNS): 1580 nM and 1980 nM
- TGI (SF-295 CNS): 3340 nM and 4290 nM
- GI50 (786-0 renal): 1280 nM and 1400 nM
- TGI (786-0 renal): 3140 nM and 2880 nM
- GI50 (NCI-H460 lung): 847 nM and 1080 nM
- TGI (NCI-H460 lung): 2750 nM and 3060 nM
- GI50 (RXF 393 renal): 278 nM and 339 nM
- TGI (RXF 393 renal): 784 nM and 1120 nM
- GI50 (SF-268 CNS): 648 nM and 1050 nM
- TGI (SF-268 CNS): 2560 nM and 2820 nM
- GI50 (U251 CNS): 1120 nM and 1270 nM
- TGI (U251 CNS): 2630 nM and 3140 nM
- GI50 (UACC-257 melanoma): 1650 nM and 1480 nM
- TGI (UACC-257 melanoma): 3250 nM and 2990 nM
- GI50 (HL-60(TB) leukemia): 181 nM and 522 nM
- TGI (HL-60(TB) leukemia): 887 nM and 2150 nM
- GI50 (SK-MEL-5 melanoma): 672 nM
- TGI (SK-MEL-5 melanoma): 1820 nM
- GI50 (SK-MEL-2 melanoma): 1550 nM and 1430 nM
- TGI (SK-MEL-2 melanoma): 3570 nM and 3220 nM
- GI50 (MALME-3M melanoma): 680 nM and 1210 nM
- TGI (MALME-3M melanoma): 2190 nM and 2890 nM
- GI50 (MDA-MB-435): 582 nM
- TGI (MDA-MB-435): 1990 nM and 2030 nM
- GI50 (HCT-15 colon): 350 nM and 558 nM
- TGI (HCT-15 colon): 2300 nM and 6840 nM
